Experiments:
[1] = Body weight and adverse effects in xenograft study; assay type: in vivo, nude mice; details: HCT116 xenograft mice, oral daily treatment
Procedure: (A) Tumors were measured regularly and growth delay was calculated for treatment groups relative to control tumors (TGD). (B) Kaplan-Meier survival analysis was based on the tumor growth endpoint. (C) Inhibition of tumor growth curves represented a mean±SEM and percentage change in mean tumor volume (percent TGI). (D) Body weights were measured daily during the first week and then 2 times per week. The body weight ratio was calculated relative to the baseline measurement.
(§1) Once a tumor was palpable with the size of approximately 55 mm^3, mice were randomized into vehicle control and treatment groups (8 mice per group). Control mice received the vehicle (0.5% carboxymethyl cellulose +0.1% Tween 80). Tumors in all 3 groups were allowed to reach an endpoint volume of 1,200 mm^3.

NCI-H226 = test: NCI-60 cell lines screening; assay type: cell-based, human; details: NCI-H226, Non-Small Cell Lung Cancer panel
Procedure: (§2) The NCI-60 cancer cell lines screening was conducted by the NCI’s Developmental Therapeutics Program (DTP; http://www.dtp.nci.nih.gov/branches/btb/ivclsp.html).

CAKI-1 = test: NCI-60 cell lines screening; assay type: cell-based, human; details: CAKI-1, Renal Cancer panel
Procedure: as §2

SNB-19 = test: NCI-60 cell lines screening; assay type: cell-based, human; details: SNB-19, CNS Cancer panel
Procedure: as §2

HCT-15 = test: NCI-60 cell lines screening; assay type: cell-based, human; details: HCT-15, Colon Cancer panel
Procedure: as §2

786-0 = test: NCI-60 cell lines screening; assay type: cell-based, human; details: 786-0, Renal Cancer panel
Procedure: as §2

OVCAR-3 = test: NCI-60 cell lines screening; assay type: cell-based, human; details: OVCAR-3, Ovarian Cancer panel
Procedure: as §2

DU-145 = test: NCI-60 cell lines screening; assay type: cell-based, human; details: DU-145, Prostate Cancer panel
Procedure: as §2

SK-MEL-5 = test: NCI-60 cell lines screening; assay type: cell-based, human; details: SK-MEL-5, Melanoma panel
Procedure: as §2

UACC-257 = test: NCI-60 cell lines screening; assay type: cell-based, human; details: UACC-257, Melanoma panel
Procedure: as §2

MDA-MB-468 = test: NCI-60 cell lines screening; assay type: cell-based, human; details: MDA-MB-468, Breast Cancer panel
Procedure: as §2

KM12 = test: NCI-60 cell lines screening; assay type: cell-based, human; details: KM12, Colon Cancer panel
Procedure: as §2

MDA-MB-435 = test: NCI-60 cell lines screening; assay type: cell-based, human; details: MDA-MB-435, Melanoma panel
Procedure: as §2

OVCAR-4 = test: NCI-60 cell lines screening; assay type: cell-based, human; details: OVCAR-4, Ovarian Cancer panel
Procedure: as §2

SK-MEL-2 = test: NCI-60 cell lines screening; assay type: cell-based, human; details: SK-MEL-2, Melanoma panel
Procedure: as §2

SR = test: NCI-60 cell lines screening; assay type: cell-based, human; details: Leukemia panel
Procedure: as §2

MALME-3M = test: NCI-60 cell lines screening; assay type: cell-based, human; details: Melanoma panel
Procedure: as §2

SK-MEL-28 = test: NCI-60 cell lines screening; assay type: cell-based, human; details: SK-MEL-28, Melanoma panel
Procedure: as §2

SF-268 = test: NCI-60 cell lines screening; assay type: cell-based, human; details: SF-268, CNS Cancer panel
Procedure: as §2

MOLT-4 = test: NCI-60 cell lines screening; assay type: cell-based, human; details: MOLT-4, Leukemia panel
Procedure: as §2

HS 578T = test: NCI-60 cell lines screening; assay type: cell-based, human
Procedure: as §2

[2] = test system: human HCT116 colorectal cancer xenograft; test: HCT116 xenograft, tumor growth delay to 1,200 mm^3 endpoint; assay type: in vivo, nude mice; details: for No. of CR (complete regression): 8 mice per group; for %TGD (tumor growth delay): [(T-C)/C]×100; for T-C: median TTE treated versus control
Procedure: The human HCT116 colorectal adenocarcinoma cells used for implantation were harvested during log phase growth and resuspended in phosphate-buffered saline at 5×10^7 cells/mL. Each mouse was injected s.c. in the right flank with 1.0×10^7 cells (0.2 mL cell suspension). Tumors were monitored twice weekly and then daily as their volumes approached 1,200 mm^3. Tumor size, in mm^3, was calculated from: where w = width and l = length in mm of the tumor. Tumor volume = (w^2×l)/2.
The logrank test was used to determine the statistical significance of the difference between the TTE values of two groups, except any NTR deaths. […] The two-tailed statistical analyses were conducted at P = 0.05. Kaplan-Meier plots show the percentage of animals remaining in the study versus time. The Kaplan-Meier plots use the same data set as the logrank test.
as §1

[3] = Homo sapiens, read-out: LC50 (the source's name)

In the case of `O=C(C=Cc1ccc2c(c1)CCN2S(=O)(=O)c1ccccc1)NO` [MPT0E028, 3-(1-benzenesulfonyl-2,3-dihydro-1H-indol-5-yl)-N-hydroxy-acrylamide], the “body weight and other adverse effects” value [1] is reported as “No significant difference in body weight or other adverse effects”, the GI50 (NCI-H226; Homo sapiens) is reported as 1240 nM and the CC50 (NCI-H226; [3]) is reported as 19000 nM. It also gave a TGI (NCI-H226) of 3880 nM, a TGI (CAKI-1) of 959 nM and a GI50 (CAKI-1; Homo sapiens) of 218 nM. The CC50 (CAKI-1; [3]) was > 100000 nM, the GI50 (SNB-19; Homo sapiens) was 434 nM and the CC50 (SNB-19; [3]) was 5650 nM. It also gave a TGI (SNB-19) of 1640 nM, a TGI (HCT-15) of 13100 nM and a GI50 (HCT-15; Homo sapiens) of 430 nM. It also gave a CC50 (HCT-15; [3]) of 90200 nM, a TGI (786-0) of 1330 nM and a GI50 (786-0; Homo sapiens) of 300 nM. It also gave a CC50 (786-0; [3]) of 4020 nM, a GI50 (OVCAR-3; Homo sapiens) of 233 nM and a CC50 (OVCAR-3; [3]) of 7300 nM. For the same compound, the TGI (OVCAR-3) was 933 nM, the TGI (DU-145) was 1920 nM and the GI50 (DU-145; Homo sapiens) was 179 nM. For the same compound, the CC50 (DU-145; [3]) was > 100000 nM, the GI50 (SK-MEL-5; Homo sapiens) was 136 nM and the CC50 (SK-MEL-5; [3]) was 705 nM. For the same compound, the TGI (SK-MEL-5) was 310 nM, the GI50 (UACC-257; Homo sapiens) was 127 nM and the CC50 (UACC-257; [3]) was > 100000 nM. For the same compound, the TGI (UACC-257) was 1650 nM, the GI50 (MDA-MB-468; Homo sapiens) was 196 nM and the CC50 (MDA-MB-468; [3]) was 6310 nM. It also gave a TGI (MDA-MB-468) of 1150 nM, a GI50 (KM12; Homo sapiens) of 286 nM and a CC50 (KM12; [3]) of 5780 nM. The TGI (KM12) was 1490 nM, the GI50 (MDA-MB-435; Homo sapiens) was 146 nM and the CC50 (MDA-MB-435; [3]) was 11300 nM. For the same compound, the TGI (MDA-MB-435) was 706 nM, the GI50 (OVCAR-4; Homo sapiens) was 509 nM and the CC50 (OVCAR-4; [3]) was > 100000 nM. For the same compound, the TGI (OVCAR-4) was 31800 nM, the GI50 (SK-MEL-2; Homo sapiens) was 433 nM and the CC50 (SK-MEL-2; [3]) was 34900 nM. For the same compound, the TGI (SK-MEL-2) was 3890 nM, the GI50 (SR; Homo sapiens) was 60.1 nM and the CC50 (SR; [3]) was > 100000 nM. The TGI (SR) was >100000 nM, the GI50 (MALME-3M; Homo sapiens) was 37.5 nM and the CC50 (MALME-3M; [3]) was > 100000 nM. The TGI (MALME-3M) was 907 nM, the GI50 (SK-MEL-28; Homo sapiens) was 406 nM and the CC50 (SK-MEL-28; [3]) was > 100000 nM. It also gave a TGI (SK-MEL-28) of 2740 nM, a GI50 (SF-268; Homo sapiens) of 464 nM and a CC50 (SF-268; [3]) of 70400 nM. For the same compound, the TGI (SF-268) was 3400 nM, the GI50 (MOLT-4; Homo sapiens) was 317 nM and the CC50 (MOLT-4; [3]) was > 100000 nM. For the same compound, the TGI (MOLT-4) was >100000 nM, the TGI (HS 578T; HS 578T, Breast Cancer panel) was 17900 nM and the GI50 (HS 578T; Homo sapiens, Hs-578T) was 253 nM. For the same compound, the CC50 (HS 578T; Homo sapiens, Hs-578T, read-out: LC50 (the source's name)) was > 100000 nM, the “No. of CR (complete regression)” value ([2]; 50 mg/kg po qd) was 0 and the “%TGD (tumor growth delay)” value ([2]; 50 mg/kg po qd) was 0%. The T-C ([2]; 50 mg/kg po qd) was 0 days, the “Median TTE” value ([2]; 100 mg/kg po qd to endpoint 1200 mm^3) was 19.2 days and the “No. of CR (complete regression)” value ([2]; 100 mg/kg po qd) was 1. For the same compound, the “%TGD (tumor growth delay)” value ([2]; 100 mg/kg po qd) was 16%, the T-C ([2]; 100 mg/kg po qd) was 2.6 days and the “Median TTE” value ([2]; 200 mg/kg po qd to endpoint 1200 mm^3) was 36.9 days. The “No. of CR (complete regression)” value ([2]; 200 mg/kg po qd) was 3, the “%TGD (tumor growth delay)” value ([2]; 200 mg/kg po qd) was 122% and the T-C ([2]; 200 mg/kg po qd) was 20 days.
